The values that follow come from patent US20140343000A1 (priority 2011, published 2014).

SMILES strings stand for the structures. Read-outs that look alike come from different tables or passages of the source.

The experiment has as its system recombinant NL4-3 virus (Renilla luciferase in nef, Gag P373S; NLRluc) in MT-2 cells. Kind of experiment: whole plant or invertebrate. Type of experiment: cell-based, HIV. The settings on record: serial dilutions of inhibitor, class symbols (key in Table 1), read-out: EC50. Put shortly: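 First, reporter virus was generated in 293T cells and titered on MT-2 cells. Next, MT-2 cells were infected in the presence of serial compound dilutions for 4-5 days. Finally, cells were lysed and luciferase activity was measured to quantify inhibition.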

The mark [1] stands for this setting: Renilla, NL43, luciferase activity in cells infected for 4-5 days with NLRluc recombinants.
Where [2] appears, read: luciferase activity in cells infected for 4-5 days with NLRluc recombinants.

As a reminder, the EC50 is the concentration giving half of the maximal effect. `C=C(C)[C@@H]1CC[C@]2(NC(=O)CN3CCC(F)(F)C3)CC[C@]3(C)[C@H](CC[C@@H]4[C@@]5(C)CC=C(c6ccc(C(=O)O)cc6)C(C)(C)[C@@H]5CC[C@]43C)[C@@H]12` [Example 119, 4-((1R,3aS,5aR,5bR,7aR,11aS,11bR,13aR,13bR)-3a-(2-(3,3-difluoropyrrolidin-1-yl)acetamido)-5a,5b,8,8,11a-pentamethyl-1-(prop-1-en-2-yl)-2,3,3a,4,5,5a,5b,6,7,7a,8,11,11a,11b,12,13,13a,13b-octadecahydro-1H-cyclopenta[a]chrysen-9-yl)benzoic acid]: under setting [1], the EC50 was under 100 nM.

With `C=C(C)[C@@H]1CC[C@]2(NCCN3CCN(S(=O)(=O)CCCCl)CC3)CC[C@]3(C)[C@H](CC[C@@H]4[C@@]5(C)CC=C(c6ccc(C(=O)O)cc6)C(C)(C)[C@@H]5CC[C@]43C)[C@@H]12` [Example B38, 4-((1R,3aS,5aR,5bR,7aR,11aS,11bR,13aR,13bR)-3a-((2-(4-((3-chloropropyl)sulfonyl)piperazin-1-yl)ethyl)amino)-5a,5b,8,8,11a-pentamethyl-1-(prop-1-en-2-yl)-2,3,3a,4,5,5a,5b,6,7,7a,8,11,11a,11b,12,13,13a,13b-octadecahydro-1H-cyclopenta[a]chrysen-9-yl)benzoic acid], the EC50 under setting [1] is under 100 nM.

`C=C(C)[C@@H]1CC[C@]2(NCC(=O)NC(C)C)CC[C@]3(C)[C@H](CC[C@@H]4[C@@]5(C)CC=C(c6ccc(C(=O)O)cc6)C(C)(C)[C@@H]5CC[C@]43C)[C@@H]12` [Example 150, 4-((1R,3aS,5aR,5bR,7aR,11aS,11bR,13aR,13bR)-3a-(2-(isopropylamino)-2-oxoethylamino)-5a,5b,8,8,11a-pentamethyl-1-(prop-1-en-2-yl)-2,3,3a,4,5,5a,5b,6,7,7a,8,11,11a,11b,12,13,13a,13b-octadecahydro-1H-cyclopenta[a]chrysen-9-yl)benzoic acid]: the EC50 under setting [1] is under 100 nM.

As for `C=C(C)[C@@H]1CC[C@]2(NCCN3CCSCC3)CC[C@]3(C)[C@H](CC[C@@H]4[C@@]5(C)CC=C(c6ccc(C(=O)O)cc6)C(C)(C)[C@@H]5CC[C@]43C)[C@@H]12` [Example 168, 4-((1R,3aS,5aR,5bR,7aR,11aS,11bR,13aR,13bR)-5a,5b,8,8,11a-pentamethyl-1-(prop-1-en-2-yl)-3a-(2-thiomorpholinoethylamino)-2,3,3a,4,5,5a,5b,6,7,7a,8,11,11a,11b,12,13,13a,13b-octadecahydro-1H-cyclopenta[a]chrysen-9-yl)benzoic acid], the EC50 under setting [1] is under 100 nM.

For `C=C(C)[C@@H]1CC[C@]2(NC(=O)CN3CCN(C(C)C)CC3)CC[C@]3(C)[C@H](CC[C@@H]4[C@@]5(C)CC=C(c6ccc(C(=O)O)cc6)C(C)(C)[C@@H]5CC[C@]43C)[C@@H]12` [Example 96, 4-((1R,3aS,5aR,5bR,7aR,11aS,11bR,13aR,13bR)-3a-(2-(4-isopropylpiperazin-1-yl)acetamido)-5a,5b,8,8,11a-pentamethyl-1-(prop-1-en-2-yl)-2,3,3a,4,5,5a,5b,6,7,7a,8,11,11a,11b,12,13,13a,13b-octadecahydro-1H-cyclopenta[a]chrysen-9-yl)benzoic acid], under setting [1], the EC50 was under 100 nM.

`C=C(C)[C@@H]1CC[C@]2(NC(=O)C(CC)NC3CCS(=O)(=O)C3)CC[C@]3(C)[C@H](CC[C@@H]4[C@@]5(C)CC=C(c6ccc(C(=O)O)cc6)C(C)(C)[C@@H]5CC[C@]43C)[C@@H]12` (stereo partly drawn) [Example 116, benzoic acid, 4-[(1R,3aS,5aR,5bR,7aR,11aS,11bR,13aR,13bR)-2,3,3a,4,5,5a,5b,6,7,7a,8,11,11a,11b,12,13,13a,13b-octadecahydro-5a,5b,8,8,11a-pentamethyl-1-(1-methylethenyl)-3a-[[1-oxo-2-[(tetrahydro-1,1-dioxido-3-thienyl)amino]butyl]amino]-1H-cyclopenta[a]chrysen-9-yl]]: the EC50 under setting [1] is under 100 nM.

In the case of `C=C(C)[C@@H]1CC[C@]2(NC(=O)NC(C)(C)CN3CCOCC3)CC[C@]3(C)[C@H](CC[C@@H]4[C@@]5(C)CC=C(c6ccc(C(=O)O)cc6)C(C)(C)[C@@H]5CC[C@]43C)[C@@H]12` [Example 5, 4-((1R,3aS,5aR,5bR,7aR,11aS,11bR,13aR,13bR)-5a,5b,8,8,11a-pentamethyl-3a-(3-(2-methyl-1-morpholinopropan-2-yl)ureido)-1-(prop-1-en-2-yl)-2,3,3a,4,5,5a,5b,6,7,7a,8,11,11a,11b,12,13,13a,13b-octadecahydro-1H-cyclopenta[a]chrysen-9-yl)benzoic acid], the EC50 under setting [1] is under 100 nM.

For `C=C(C)[C@@H]1CC[C@]2(NC(=O)C(c3ccccc3)N3CCS(=O)(=O)CC3)CC[C@]3(C)[C@H](CC[C@@H]4[C@@]5(C)CC=C(c6ccc(C(=O)O)cc6)C(C)(C)[C@@H]5CC[C@]43C)[C@@H]12` (single isomer, unassigned) [Example 92], the EC50 under setting [2] was under 100 nM.

Regarding `C=C(C)[C@@H]1CC[C@]2(NC(=O)CN3CCC(F)(F)CC3)CC[C@]3(C)[C@H](CC[C@@H]4[C@@]5(C)CC=C(c6ccc(C(=O)O)cc6)C(C)(C)[C@@H]5CC[C@]43C)[C@@H]12` [Example 118, 4-((1R,3aS,5aR,5bR,7aR,11aS,11bR,13aR,13bR)-3a-(2-(4,4-difluoropiperidin-1-yl)acetamido)-5a,5b,8,8,11a-pentamethyl-1-(prop-1-en-2-yl)-2,3,3a,4,5,5a,5b,6,7,7a,8,11,11a,11b,12,13,13a,13b-octadecahydro-1H-cyclopenta[a]chrysen-9-yl)benzoic acid], under setting [1], the EC50 is under 100 nM.

For `C=C(C)[C@@H]1CC[C@]2(NC(=O)NCCN3CCS(=O)(=O)CC3)CC[C@]3(C)[C@H](CC[C@@H]4[C@@]5(C)CC=C(c6ccc(C(=O)O)cc6)C(C)(C)[C@@H]5CC[C@]43C)[C@@H]12` [Example 21, 4-((1R,3aS,5aR,5bR,7aR,11aS,11bR,13aR,13bR)-3a-(((2-(1,1-dioxido-4-thiomorpholinyl)ethyl)carbamoyl)amino)-1-isopropenyl-5a,5b,8,8,11a-pentamethyl-2,3,3a,4,5,5a,5b,6,7,7a,8,11,11a,11b,12,13,13a,13b-octadecahydro-1H-cyclopenta[a]chrysen-9-yl)benzoic acid], the EC50 under setting [1] was under 100 nM.

As for `C=C(C)[C@@H]1CC[C@]2(NC(=O)C(C(C)C)N3CCS(=O)(=O)CC3)CC[C@]3(C)[C@H](CC[C@@H]4[C@@]5(C)CC=C(c6ccc(C(=O)O)cc6)C(C)(C)[C@@H]5CC[C@]43C)[C@@H]12` (single isomer, unassigned) [Example 111], under setting [2], the EC50 was under 100 nM.

For `C=C(C)[C@@H]1CC[C@]2(NCCN3CCC(C(=O)O)CC3)CC[C@]3(C)[C@H](CC[C@@H]4[C@@]5(C)CC=C(c6ccc(C(=O)O)cc6)C(C)(C)[C@@H]5CC[C@]43C)[C@@H]12` [Example 170, 1-(2-(((1R,3aS,5aR,5bR,7aR,11aS,11bR,13aR,13bR)-9-(4-carboxyphenyl)-5a,5b,8,8,11a-pentamethyl-1-(prop-1-en-2-yl)-2,3,3a,4,5,5a,5b,6,7,7a,8,11,11a,11b,12,13,13a,13b-octadecahydro-1H-cyclopenta[a]chrysen-3a-yl)amino)ethyl)piperidine-4-carboxylic acid], the EC50 under setting [1] was under 100 nM.

With `C=C(C)[C@@H]1CC[C@]2(NC(=O)C(CC3CCCCC3)N3CCS(=O)(=O)CC3)CC[C@]3(C)[C@H](CC[C@@H]4[C@@]5(C)CC=C(c6ccc(C(=O)O)cc6)C(C)(C)[C@@H]5CC[C@]43C)[C@@H]12` (stereo partly drawn) [Example 99, benzoic acid, 4-[(1R,3aS,5aR,5bR,7aR,11aS,11bR,13aR,13bR)-3a-[[3-cyclohexyl-2-(1,1-dioxido-4-thiomorpholinyl)-1-oxopropyl]amino]-2,3,3a,4,5,5a,5b,6,7,7a,8,11,11a,11b,12,13,13a,13b-octadecahydro-5a,5b,8,8,11a-pentamethyl-1-(1-methylethenyl)-1H-cyclopenta[a]chrysen-9-yl]], under setting [1], the EC50 is under 100 nM.

For the compound `C=C(C)[C@@H]1CC[C@]2(NC(=O)NCCCN(C)C)CC[C@]3(C)[C@H](CC[C@@H]4[C@@]5(C)CC=C(c6ccc(C(=O)O)cc6)C(C)(C)[C@@H]5CC[C@]43C)[C@@H]12` [Example 10, 4-((1R,3aS,5aR,5bR,7aR,11aS,11bR,13aR,13bR)-3a-(3-(3-(dimethylamino)propyl)ureido)-5a,5b,8,8,11a-pentamethyl-1-(prop-1-en-2-yl)-2,3,3a,4,5,5a,5b,6,7,7a,8,11,11a,11b,12,13,13a,13b-octadecahydro-1H-cyclopenta[a]chrysen-9-yl)benzoic acid], the EC50 under setting [1] was under 100 nM.

`C=C(C)[C@@H]1CC[C@]2(NCCN3CCS(=O)(=O)CC3)CC[C@]3(C)[C@H](CC[C@@H]4[C@@]5(C)CC=C(c6ccc(C(=O)O[C@H]7O[C@H](C(=O)OCc8ccccc8)[C@@H](O)[C@H](O)[C@H]7O)cc6)C(C)(C)[C@@H]5CC[C@]43C)[C@@H]12` [Example B7A, (2S,3S,4S,5R,6R)-benzyl 6-((4-((1R,3aS,5aR,5bR,7aR,11aS,11bR,13aR,13bR)-3a-((2-(1,1-dioxidothiomorpholino)ethyl)amino)-5a,5b,8,8,11a-pentamethyl-1-(prop-1-en-2-yl)-2,3,3a,4,5,5a,5b,6,7,7a,8,11,11a,11b,12,13,13a,13b-octadecahydro-1H-cyclopenta[a]chrysen-9-yl)benzoyl)oxy)-3,4,5-trihydroxytetrahydro-2H-pyran-2-carboxylate]: under setting [1], the EC50 is under 100 nM.

Consider `C=C(C)[C@@H]1CC[C@]2(NCCC(F)(F)F)CC[C@]3(C)[C@H](CC[C@@H]4[C@@]5(C)CC=C(c6ccc(C(=O)O)cc6)C(C)(C)[C@@H]5CC[C@]43C)[C@@H]12` [Example 182, 4-((1R,3aS,5aR,5bR,7aR,11aS,11bR,13aR,13bR)-5a,5b,8,8,11a-pentamethyl-1-(prop-1-en-2-yl)-3a-((3,3,3-trifluoropropyl)amino)-2,3,3a,4,5,5a,5b,6,7,7a,8,11,11a,11b,12,13,13a,13b-octadecahydro-1H-cyclopenta[a]chrysen-9-yl)benzoic acid], for which the EC50 under setting [1] was over 100 nM.
